Data from BigSolDB 2.1.

In the case of `Cl.c1ccc([C@H]2CN3CCSC3=N2)cc1`, the solubility (mole fraction) (in DMSO, 293.15 K) is reported as 0.0117, the solubility (mole fraction) (in DMSO, 298.15 K) is reported as 0.0129 and the solubility (mole fraction) (in DMSO, 303.15 K) is reported as 0.014. For the same compound, the solubility (mole fraction) (in DMSO, 308.15 K) was 0.0157, the solubility (mole fraction) (in DMSO, 313.15 K) was 0.0173 and the solubility (mole fraction) (in DMSO, 318.15 K) was 0.0193. The solubility (mole fraction) (in DMSO, 323.15 K) was 0.0218, the solubility (mole fraction) (in DMSO, 328.15 K) was 0.0237 and the solubility (mole fraction) (in DMSO, 333.15 K) was 0.0265. It also gave a solubility (mole fraction) (in ethanol, 283.15 K) of 0.00753, a solubility (mole fraction) (in ethanol, 288.15 K) of 0.00881 and a solubility (mole fraction) (in ethanol, 293.15 K) of 0.0101. It also gave a solubility (mole fraction) (in ethanol, 298.15 K) of 0.0119, a solubility (mole fraction) (in ethanol, 303.15 K) of 0.0153 and a solubility (mole fraction) (in ethanol, 308.15 K) of 0.0178. It also gave a solubility (mole fraction) (in ethanol, 313.15 K) of 0.0201, a solubility (mole fraction) (in ethanol, 318.15 K) of 0.0244 and a solubility (mole fraction) (in ethanol, 323.15 K) of 0.0289. The solubility (mole fraction) (in isobutanol, 283.15 K) was 0.000869, the solubility (mole fraction) (in isobutanol, 288.15 K) was 0.00131 and the solubility (mole fraction) (in isobutanol, 293.15 K) was 0.00182. The solubility (mole fraction) (in isobutanol, 298.15 K) was 0.00247, the solubility (mole fraction) (in isobutanol, 303.15 K) was 0.00334 and the solubility (mole fraction) (in isobutanol, 308.15 K) was 0.00447. The solubility (mole fraction) (in isobutanol, 313.15 K) was 0.00577, the solubility (mole fraction) (in isobutanol, 318.15 K) was 0.00747 and the solubility (mole fraction) (in isobutanol, 323.15 K) was 0.00937. For the same compound, the solubility (mole fraction) (in isopentanol, 283.15 K) was 0.00108, the solubility (mole fraction) (in isopentanol, 288.15 K) was 0.00134 and the solubility (mole fraction) (in isopentanol, 293.15 K) was 0.00182. For the same compound, the solubility (mole fraction) (in isopentanol, 298.15 K) was 0.00234, the solubility (mole fraction) (in isopentanol, 303.15 K) was 0.00287 and the solubility (mole fraction) (in isopentanol, 308.15 K) was 0.00402. It also gave a solubility (mole fraction) (in isopentanol, 313.15 K) of 0.00542, a solubility (mole fraction) (in isopentanol, 318.15 K) of 0.00676 and a solubility (mole fraction) (in isopentanol, 323.15 K) of 0.00873. The solubility (mole fraction) (in isopropanol, 283.15 K) was 0.000856, the solubility (mole fraction) (in isopropanol, 288.15 K) was 0.00104 and the solubility (mole fraction) (in isopropanol, 293.15 K) was 0.00138. The solubility (mole fraction) (in isopropanol, 298.15 K) was 0.00179, the solubility (mole fraction) (in isopropanol, 303.15 K) was 0.00225 and the solubility (mole fraction) (in isopropanol, 308.15 K) was 0.00275. For the same compound, the solubility (mole fraction) (in isopropanol, 313.15 K) was 0.00319, the solubility (mole fraction) (in isopropanol, 318.15 K) was 0.00401 and the solubility (mole fraction) (in isopropanol, 323.15 K) was 0.00475. For the same compound, the solubility (mole fraction) (in methanol, 283.15 K) was 0.0298, the solubility (mole fraction) (in methanol, 288.15 K) was 0.0357 and the solubility (mole fraction) (in methanol, 293.15 K) was 0.0429. It also gave a solubility (mole fraction) (in methanol, 298.15 K) of 0.0513, a solubility (mole fraction) (in methanol, 303.15 K) of 0.0595 and a solubility (mole fraction) (in methanol, 308.15 K) of 0.0696. For the same compound, the solubility (mole fraction) (in methanol, 313.15 K) was 0.0816, the solubility (mole fraction) (in methanol, 318.15 K) was 0.0955 and the solubility (mole fraction) (in methanol, 323.15 K) was 0.109. For the same compound, the solubility (mole fraction) (in n-butanol, 283.15 K) was 0.00182, the solubility (mole fraction) (in n-butanol, 288.15 K) was 0.00236 and the solubility (mole fraction) (in n-butanol, 293.15 K) was 0.00311. For the same compound, the solubility (mole fraction) (in n-butanol, 298.15 K) was 0.00407, the solubility (mole fraction) (in n-butanol, 303.15 K) was 0.00542 and the solubility (mole fraction) (in n-butanol, 308.15 K) was 0.00699. The solubility (mole fraction) (in n-butanol, 313.15 K) was 0.00888, the solubility (mole fraction) (in n-butanol, 318.15 K) was 0.0111 and the solubility (mole fraction) (in n-butanol, 323.15 K) was 0.0139. The solubility (mole fraction) (in n-hexanol, 283.15 K) was 0.000727, the solubility (mole fraction) (in n-hexanol, 288.15 K) was 0.000986 and the solubility (mole fraction) (in n-hexanol, 293.15 K) was 0.00136. The solubility (mole fraction) (in n-hexanol, 298.15 K) was 0.00198, the solubility (mole fraction) (in n-hexanol, 303.15 K) was 0.00226 and the solubility (mole fraction) (in n-hexanol, 308.15 K) was 0.00283. The solubility (mole fraction) (in n-hexanol, 313.15 K) was 0.0035, the solubility (mole fraction) (in n-hexanol, 318.15 K) was 0.00437 and the solubility (mole fraction) (in n-hexanol, 323.15 K) was 0.00524. It also gave a solubility (mole fraction) (in n-pentanol, 283.15 K) of 0.000747, a solubility (mole fraction) (in n-pentanol, 288.15 K) of 0.00112 and a solubility (mole fraction) (in n-pentanol, 293.15 K) of 0.00161. For the same compound, the solubility (mole fraction) (in n-pentanol, 298.15 K) was 0.00209, the solubility (mole fraction) (in n-pentanol, 303.15 K) was 0.00293 and the solubility (mole fraction) (in n-pentanol, 308.15 K) was 0.00377. It also gave a solubility (mole fraction) (in n-pentanol, 313.15 K) of 0.00471, a solubility (mole fraction) (in n-pentanol, 318.15 K) of 0.00605 and a solubility (mole fraction) (in n-pentanol, 323.15 K) of 0.00745. It also gave a solubility (mole fraction) (in n-propanol, 283.15 K) of 0.00412, a solubility (mole fraction) (in n-propanol, 288.15 K) of 0.00492 and a solubility (mole fraction) (in n-propanol, 293.15 K) of 0.00631. For the same compound, the solubility (mole fraction) (in n-propanol, 298.15 K) was 0.00751, the solubility (mole fraction) (in n-propanol, 303.15 K) was 0.00903 and the solubility (mole fraction) (in n-propanol, 308.15 K) was 0.0109. The solubility (mole fraction) (in n-propanol, 313.15 K) was 0.013, the solubility (mole fraction) (in n-propanol, 318.15 K) was 0.0149 and the solubility (mole fraction) (in n-propanol, 323.15 K) was 0.0169. It also gave a solubility (mole fraction) (in sec-butanol, 283.15 K) of 0.000587, a solubility (mole fraction) (in sec-butanol, 288.15 K) of 0.000722 and a solubility (mole fraction) (in sec-butanol, 293.15 K) of 0.000867. For the same compound, the solubility (mole fraction) (in sec-butanol, 298.15 K) was 0.00105, the solubility (mole fraction) (in sec-butanol, 303.15 K) was 0.00123 and the solubility (mole fraction) (in sec-butanol, 308.15 K) was 0.00148. For the same compound, the solubility (mole fraction) (in sec-butanol, 313.15 K) was 0.00177, the solubility (mole fraction) (in sec-butanol, 318.15 K) was 0.00213 and the solubility (mole fraction) (in sec-butanol, 323.15 K) was 0.00252. The solubility (mole fraction) (in water, 283.15 K) was 0.0664, the solubility (mole fraction) (in water, 285.65 K) was 0.0718 and the solubility (mole fraction) (in water, 288.15 K) was 0.0769. It also gave a solubility (mole fraction) (in water, 290.65 K) of 0.0825, a solubility (mole fraction) (in water, 293.15 K) of 0.0879 and a solubility (mole fraction) (in water, 295.65 K) of 0.0943. The solubility (mole fraction) (in water, 298.15 K) was 0.101, the solubility (mole fraction) (in water, 300.65 K) was 0.106 and the solubility (mole fraction) (in water, 303.15 K) was 0.113. For the same compound, the solubility (mole fraction) (in water, 305.65 K) was 0.12 and the solubility (mole fraction) (in water, 308.15 K) was 0.127.
